Calls of active or inactive are those of the source. The calls are words filed in the database; no cut-off is given here.
Legend:
HeLa [1] = assay: Inhibition of autophagy in human HeLa cells assessed as increase in lysosomal pH at 10 uM after 24 hrs by LysoTracker Red DND-99 staining based fluorescence microscopic method; type: functional, cell-based
HeLa [2] = assay: Antiproliferative activity against human HeLa cells assessed as cell viability at 10 uM after 24 hrs by MTT assay relative to control; type: functional; details: read-out: Activity
HeLa [3] = assay: Induction of autophagosome formation in human HeLa cells assessed as increase in LC3 puncta at 10 uM after 24 hrs by Alexa Fluor 488 staining based fluorescence microscopic analysis; type: functional, cell-based
HeLa [4] = assay: Antiproliferative activity against human HeLa cells assessed as cell viability at 20 uM after 24 hrs by MTT assay relative to control; type: functional; details: read-out: Activity
HeLa [5] = assay: Modulation of autophagy in human HeLa cells assessed as increase in LC3-2 protein level at 1 to 20 uM after 24 hrs by Western blot analysis; type: functional, cell-based; details: dose 1-20 µM
SK-MEL-28 = assay: Induction of autophagosome formation in SK-MEL-28 cells assessed as increase in LC3 puncta at 10 uM after 24 hrs by Alexa Fluor 488 staining based fluorescence microscopic analysis; type: functional, cell-based; details: Homo sapiens
HeLa [6] = assay: Induction of autophagosome formation in human HeLa cells assessed as increase in LC3 puncta at 10 uM after 24 hrs in presence of Baf A1 by Alexa Fluor 488 staining based fluorescence microscopic analysis; type: functional, cell-based
HeLa [7] = assay: Inhibition of autophagy in human HeLa cells assessed as increase in P62 protein level at 10 uM after 24 hrs in presence of chloroquine by Western blot analysis; type: functional, cell-based
HeLa [8] = assay: Antiproliferative activity against human HeLa cells assessed as cell viability at 1 uM after 24 hrs by MTT assay relative to control; type: functional; details: read-out: Activity
HeLa [9] = assay: Modulation of autophagy in human HeLa cells assessed as increase in LC3-2 protein level at 10 uM after 24 hrs in presence of Baf A1 by Western blot analysis; type: functional, cell-based
HT-1080 = assay: Induction of autophagosome formation in HT-1080 cells assessed as increase in LC3 puncta at 10 uM after 24 hrs by Alexa Fluor 488 staining based fluorescence microscopic analysis; type: functional, cell-based; details: Homo sapiens
HeLa [10] = assay: Inhibition of autophagy in human HeLa cells assessed as increase in P62 protein level at 1 to 20 uM after 24 hrs by Western blot analysis; type: functional, cell-based; details: dose 1-20 µM
HeLa [11] = assay: Modulation of autophagy in human HeLa cells assessed as increase in LC3-2 protein level at 10 uM after 24 hrs in presence of chloroquine by Western blot analysis; type: functional, cell-based
HeLa [12] = assay: Induction of autophagosome formation in human HeLa cells assessed as increase in LC3 puncta at 10 uM after 6 hrs in presence of rapamycin by Alexa Fluor 488 staining based fluorescence microscopic analysis; type: functional, cell-based
HeLa [13] = assay: Inhibition of autophagy in human HeLa cells assessed as increase in P62 protein level at 10 uM after 24 hrs in presence of Baf A1 by Western blot analysis; type: functional, cell-based
HeLa [14] = assay: Inhibition of autophagy in human HeLa cells assessed as decrease in cathepsin B at 10 nM after 24 hrs by immunoblot analysis; type: functional, cell-based
HeLa [15] = assay: Induction of autophagy in human HeLa cells assessed as decrease in P62 protein level at 1 uM after 24 hrs by Western blot analysis; type: functional, cell-based
HeLa [16] = assay: Inhibition of autophagy in human HeLa cells assessed as increase in P62 protein level at 10 nM after 24 hrs by Western blot analysis; type: functional, cell-based
HeLa [17] = assay: Inhibition of autophagy in human HeLa cells assessed as increase in lysosomal pH at 10 nM after 24 hrs by LysoTracker Red DND-99 staining based fluorescence microscopic method; type: functional, cell-based
HeLa [18] = assay: Induction of autophagosome formation in human HeLa cells assessed as increase in LC3 puncta at 10 nM after 24 hrs by Alexa Fluor 488 staining based fluorescence microscopic analysis; type: functional, cell-based

CCN(CC)CCCC(C)Nc1ccnc2cc(Cl)ccc12 (stereo unspecified)
inhibition (HeLa [1]): Active

C1=C\C/C=C\CC[C@@]23CN(CC/C=C\C/1)C[C@H]1C/C4=C/C/C=C\CCCCN(C2)[C@@H]4C[C@H]13
viability at 10 µM (HeLa [2]): 2.9%
Activity (HeLa [3]): Active
viability at 20 µM (HeLa [4]): 1.4%
Activity (HeLa [5]): Active
Activity (SK-MEL-28): Active
Activity (HeLa [6]): Active
inhibition (HeLa [1]): Active
inhibition (HeLa [7]): Active
viability at 1 µM (HeLa [8]): 95.2%
inhibition (HeLa [9]): Active
Activity (HT-1080): Active
inhibition (HeLa [10]): Active
inhibition (HeLa [11]): Active
Activity (HeLa [12]): inactive
inhibition (HeLa [13]): Active
inhibition (HeLa [14]): Active

CO[C@H]1C[C@@H]2CC[C@@H](C)[C@@](O)(O2)C(=O)C(=O)N2CCCC[C@H]2C(=O)O[C@H]([C@H](C)C[C@@H]2CC[C@@H](O)[C@H](OC)C2)CC(=O)[C@H](C)/C=C(\C)[C@@H](O)[C@@H](OC)C(=O)[C@H](C)C[C@H](C)/C=C/C=C/C=C/1C
Activity (HeLa [15]): Active

CO/C1=C\C(C)=C\[C@@H](C)[C@@H](O)[C@@H](C)C/C(C)=C/C=C/[C@H](OC)[C@@H]([C@@H](C)[C@@H](O)[C@H](C)[C@@]2(O)C[C@@H](O)[C@H](C)[C@@H](C(C)C)O2)OC1=O
inhibition (HeLa [16]): Active
inhibition (HeLa [17]): inactive
Activity (HeLa [18]): Active
